The target of this test is T1, SMARCA2 (Homo sapiens, UniProt P51531).
T1 construct: endogenous in cells; host or cells: HT1080 (CRISPR HiBiT knock-in clone, generated in house)
Put plainly: SMARCA2 HiBiT degradation assay (cellular). Type of test: cell-based. To be noted: table head names A549; for DC50: 6 h incubation, HiBiT-tagged SMARCA2, luminescence read-out, read-out: HiBit A549 SMARCA2 IP (nM) 6 h; for Emax: A549, 6 h incubation, Emax = amount of residual protein remaining in the cell following compound treatment. A general note: The HiBiT peptide binds its large partner to form an active luciferase.

The structures appear in SMILES notation.

T1 sequence (P51531 whole entry): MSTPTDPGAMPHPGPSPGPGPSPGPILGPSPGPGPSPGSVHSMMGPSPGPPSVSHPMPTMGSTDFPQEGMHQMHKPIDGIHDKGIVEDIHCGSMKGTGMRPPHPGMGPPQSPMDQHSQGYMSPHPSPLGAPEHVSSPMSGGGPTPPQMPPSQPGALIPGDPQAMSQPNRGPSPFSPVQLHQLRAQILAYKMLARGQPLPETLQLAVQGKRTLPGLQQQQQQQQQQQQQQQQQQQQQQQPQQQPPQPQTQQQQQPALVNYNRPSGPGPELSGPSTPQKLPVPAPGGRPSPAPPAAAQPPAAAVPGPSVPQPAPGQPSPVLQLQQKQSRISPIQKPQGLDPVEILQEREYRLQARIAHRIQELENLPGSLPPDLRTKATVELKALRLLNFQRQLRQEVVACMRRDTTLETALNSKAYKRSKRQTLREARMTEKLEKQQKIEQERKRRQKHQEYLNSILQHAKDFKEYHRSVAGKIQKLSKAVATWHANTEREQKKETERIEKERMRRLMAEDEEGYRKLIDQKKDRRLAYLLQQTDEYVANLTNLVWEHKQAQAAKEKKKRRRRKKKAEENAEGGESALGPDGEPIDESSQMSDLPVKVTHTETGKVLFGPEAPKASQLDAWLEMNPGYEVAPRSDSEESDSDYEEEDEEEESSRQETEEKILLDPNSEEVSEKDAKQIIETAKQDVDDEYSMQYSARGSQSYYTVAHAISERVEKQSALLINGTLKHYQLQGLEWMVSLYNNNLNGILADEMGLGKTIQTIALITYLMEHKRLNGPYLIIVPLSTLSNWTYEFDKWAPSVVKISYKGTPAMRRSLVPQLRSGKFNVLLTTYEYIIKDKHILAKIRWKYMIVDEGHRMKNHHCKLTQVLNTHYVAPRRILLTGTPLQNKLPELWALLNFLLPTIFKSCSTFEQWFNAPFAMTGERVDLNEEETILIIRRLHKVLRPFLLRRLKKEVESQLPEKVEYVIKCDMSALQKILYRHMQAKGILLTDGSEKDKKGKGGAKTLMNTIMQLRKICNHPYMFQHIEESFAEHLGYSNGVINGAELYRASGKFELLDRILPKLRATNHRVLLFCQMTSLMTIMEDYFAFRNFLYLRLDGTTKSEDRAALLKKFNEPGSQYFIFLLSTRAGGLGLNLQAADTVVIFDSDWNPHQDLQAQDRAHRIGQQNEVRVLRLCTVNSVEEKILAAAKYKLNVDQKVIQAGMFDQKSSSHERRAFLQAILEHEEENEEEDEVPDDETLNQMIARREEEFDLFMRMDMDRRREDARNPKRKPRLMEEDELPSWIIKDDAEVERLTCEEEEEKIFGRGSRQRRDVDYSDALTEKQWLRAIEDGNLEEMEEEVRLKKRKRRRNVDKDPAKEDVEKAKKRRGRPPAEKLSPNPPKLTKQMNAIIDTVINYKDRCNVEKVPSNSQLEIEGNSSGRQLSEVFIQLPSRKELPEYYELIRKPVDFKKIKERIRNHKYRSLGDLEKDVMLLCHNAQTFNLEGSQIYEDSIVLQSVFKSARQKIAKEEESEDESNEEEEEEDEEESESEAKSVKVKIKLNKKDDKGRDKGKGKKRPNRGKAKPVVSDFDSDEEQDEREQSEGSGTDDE

As usually defined, the Emax is the maximal effect, on the per cent scale that the assay sets. For `Nc1nnc(-c2ccccc2O)cc1N1CC(Oc2cccc(CN3CCN(C(=O)CCCCCCCCCNc4cccc5c4C(=O)N(C4CCC(=O)NC4=O)C5=O)CC3)c2)C1` (stereo not drawn) [Example 32, 4-[[10-[4-[[3-[1-[3-amino-6-(2-hydroxyphenyl)pyridazin-4-yl]azetidin-3-yl]oxyphenyl]methyl]piperazin-1-yl]-10-oxo-decyl]amino]-2-(2,6-dioxo-3-piperidyl)isoindoline-1,3-dione], the DC50 was 281 nM and the maximal response (Emax) is 62%.

As for `Nc1nnc(-c2ccccc2O)cc1N1CCC(NC(=O)CCCN2CCC(c3ccc(NC4CCC(=O)NC4=O)cc3)CC2)(c2ccccc2)CC1` (stereo not drawn) [Example 91, N-[1-[3-amino-6-(2-hydroxyphenyl)pyridazin-4-yl]-4-phenyl-4-piperidyl]-4-[4-[4-[(2,6-dioxo-3-piperidyl)amino]phenyl]-1-piperidyl]butanamide], the DC50 is 90 nM and the maximum response (Emax) stood at 46%.

For `Nc1nnc(-c2ccccc2O)cc1OC1CCCN(c2ccc(N3CCN(C(=O)CCCCCCCCCCn4cc(CNc5cccc6c5C(=O)N(C5CCC(=O)NC5=O)C6=O)nn4)CC3)cc2)C1` (stereo not drawn) [Example 29, 4-[[1-[11-[4-[4-[3-[3-amino-6-(2-hydroxyphenyl)pyridazin-4-yl]oxy-1-piperidyl]phenyl]piperazin-1-yl]-11-oxo-undecyl]triazol-4-yl]methylamino]-2-(2,6-dioxo-3-piperidyl)isoindoline-1,3-dione], the DC50 was determined as 158 nM and the maximal effect (Emax) turned out to be 50%.

For `Nc1nnc(-c2ccccc2O)cc1N1CCN(c2cccc(CN3CCN(C(=O)CC4CCN(c5ccc6c(c5)C(=O)N(C5CCC(=O)NC5=O)C6=O)CC4)CC3)c2)C2(CC2)C1` (stereo not drawn) [Example 130, 5-(4-(2-(4-(3-(7-(3-amino-6-(2-hydroxyphenyl)pyridazin-4-yl)-4,7-diazaspiro[2.5]octan-4-yl)benzyl)piperazin-1-yl)-2-oxoethyl)piperidin-1-yl)-2-(2,6-dioxopiperidin-3-yl)isoindoline-1,3-dione], the DC50 worked out at 12 nM and the Emax worked out at 43%.

On to `Nc1nnc(-c2ccccc2O)cc1N1CCC(C(=O)N2CC3(CN(C(=O)CCCN4CCC(c5ccc(OC6CCC(=O)NC6=O)cc5)CC4)C3)C2)(c2ccccc2)CC1` (stereo not drawn) [Example 123, 3-(4-(1-(4-(6-(1-(3-amino-6-(2-hydroxyphenyl)pyridazin-4-yl)-4-phenylpiperidine-4-carbonyl)-2,6-diazaspiro[3.3]heptan-2-yl)-4-oxobutyl)piperidin-4-yl)phenoxy)piperidine-2,6-dione], for which the DC50 amounted to 75 nM and the Emax worked out at 34%.

For `Nc1nnc(-c2ccccc2O)cc1N1CCC(C(=O)N2CC3(CCN(C(=O)CN4CCC(c5ccc(NC6CCC(=O)NC6=O)cc5)CC4)CC3)C2)(c2ccccc2)CC1` (stereo not drawn) [Example 165, 3-((4-(1-(2-(2-(1-(3-amino-6-(2-hydroxyphenyl)pyridazin-4-yl)-4-phenylpiperidine-4-carbonyl)-2,7-diazaspiro[3.5]nonan-7-yl)-2-oxoethyl)piperidin-4-yl)phenyl)amino)piperidine-2,6-dione], the DC50 stood at 28 nM and the Emax came out at 38%.

Turning to `Nc1nnc(-c2ccccc2O)cc1N1CCN(c2cccc(OCCN3CCN(C(=O)CCCCCCNc4cccc5c4C(=O)N(C4CCC(=O)NC4=O)C5=O)CC3)c2)C2(CC2)C1` (stereo not drawn) [Example 5, 4-[[7-[4-[2-[3-[7-[3-amino-6-(2-hydroxyphenyl)pyridazin-4-yl]-4,7-diazaspiro[2.5]octan-4-yl]phenoxy]ethyl]piperazin-1-yl]-7-oxo-heptyl]amino]-2-(2,6-dioxo-3-piperidyl)isoindoline-1,3-dione], the DC50 turned out to be 66 nM and the maximum response (Emax) amounted to 60%.

As for `Nc1nnc(-c2ccccc2O)cc1N1CCN(c2ccccc2)C(C(=O)NC2CCN(C(=O)CCC3CCN(c4ccc5c(c4)C(=O)N(C4CCC(=O)NC4=O)C5=O)CC3)CC2)C1` (stereo not drawn) [Example 54, 4-[3-amino-6-(2-hydroxyphenyl)pyridazin-4-yl]-N-[1-[3-[1-[2-(2,6-dioxo-3-piperidyl)-1,3-dioxo-isoindolin-5-yl]-4-piperidyl]propanoyl]-4-piperidyl]-1-phenyl-piperazine-2-carboxamide], the DC50 stood at 42 nM and the maximum response (Emax) is 63%.

With `Nc1nnc(-c2ccccc2O)cc1N1CCC(C(=O)NCC2CCN(C(=O)CC3CCN(c4ccc5c(c4)C(=O)N(C4CCC(=O)NC4=O)C5=O)CC3)CC2)(c2ccccc2)CC1` (stereo not drawn) [Example 103, 1-(3-amino-6-(2-hydroxyphenyl)pyridazin-4-yl)-N-((1-(2-(1-(2-(2,6-dioxopiperidin-3-yl)-1,3-dioxoisoindolin-5-yl)piperidin-4-yl)acetyl)piperidin-4-yl)methyl)-4-phenylpiperidine-4-carboxamide], the DC50 came to 104 nM and the Emax amounted to 45%.

Regarding `Nc1nnc(-c2ccccc2O)cc1N1CCC(C(=O)N2CC3(CN(C(=O)CC4CCN(c5ccc6c(c5)C(=O)N(C5CCC(=O)NC5=O)C6=O)CC4)C3)C2)(c2ccccc2)CC1` (stereo not drawn) [Example 122, 5-(4-(2-(6-(1-(3-amino-6-(2-hydroxyphenyl)pyridazin-4-yl)-4-phenylpiperidine-4-carbonyl)-2,6-diazaspiro[3.3]heptan-2-yl)-2-oxoethyl)piperidin-1-yl)-2-(2,6-dioxopiperidin-3-yl)isoindoline-1,3-dione], the DC50 is 70 nM and the maximum response (Emax) worked out at 29%.

`CC(Oc1cccc2c1C(=O)N(C1CCC(=O)NC1=O)C2=O)c1cn(CCCN2CCN(C(=O)CCN3CCN(c4ccc(N5CCC[C@H](Oc6cc(-c7ccccc7O)nnc6N)C5)cc4)CC3)CC2)nn1` (mixture of isomers) [Example 200, 2-(2,6-dioxo-3-piperidyl)-4-[1-[1-[3-[4-[3-[4-[4-[rac-(3S)-3-[3-amino-6-(2-hydroxyphenyl)pyridazin-4-yl]oxy-1-piperidyl]phenyl]piperazin-1-yl]propanoyl]piperazin-1-yl]propyl]triazol-4-yl]ethoxy]isoindoline-1,3-dione]: the DC50 amounted to 104 nM and the Emax amounted to 45%.

As for `Nc1nnc(-c2ccccc2O)cc1N1CCC(C(=O)N2CCC3(CC2)CN(C(=O)CN2CCN(c4ccc(NC5CCC(=O)NC5=O)cc4)CC2)CCO3)(c2ccccc2)CC1` (stereo not drawn) [Example 173, 3-((4-(4-(2-(9-(1-(3-amino-6-(2-hydroxyphenyl)pyridazin-4-yl)-4-phenylpiperidine-4-carbonyl)-1-oxa-4,9-diazaspiro[5.5]undecan-4-yl)-2-oxoethyl)piperazin-1-yl)phenyl)amino)piperidine-2,6-dione], the DC50 was 110 nM and the Emax turned out to be 72%.

With `Nc1nnc(-c2ccccc2O)cc1N1CC2CCC(C1)N2c1cccc(OCCN2CCN(C(=O)N3CCC(Oc4cccc5c4C(=O)N(C4CCC(=O)NC4=O)C5=O)CC3)CC2)c1` (racemic) [Example 41, rac-4-[[1-[4-[2-[3-[3-[3-amino-6-(2-hydroxyphenyl)pyridazin-4-yl]-3,8-diazabicyclo[3.2.1]octan-8-yl]phenoxy]ethyl]piperazine-1-carbonyl]-4-piperidyl]oxy]-2-(2,6-dioxo-3-piperidyl)isoindoline-1,3-dione], the DC50 came out at 46 nM and the Emax is 48%.

`Nc1nnc(-c2ccccc2O)cc1N1CCN(c2ccccc2)C(C(=O)NC2CCN(C(=O)C3CCN(c4ccc5c(c4)C(=O)N(C4CCC(=O)NC4=O)C5=O)CC3)CC2)C1` (stereo not drawn) [Example 87, 4-(3-amino-6-(2-hydroxyphenyl)pyridazin-4-yl)-N-(1-(1-(2-(2,6-dioxopiperidin-3-yl)-1,3-dioxoisoindolin-5-yl)piperidine-4-carbonyl)piperidin-4-yl)-1-phenylpiperazine-2-carboxamide]: the DC50 is 81 nM and the maximal response (Emax) came to 48%.

In the case of `Nc1nnc(-c2ccccc2O)cc1N1CC2CCC(C1)N2c1cccc(OCCN2CCN(C(=O)N3CC4(C3)CN(c3ccc5c(c3)C(=O)N(C3CCC(=O)NC3=O)C5=O)C4)CC2)c1` (racemic) [Example 69, rac-5-[2-[4-[2-[3-[3-[3-amino-6-(2-hydroxyphenyl)pyridazin-4-yl]-3,8-diazabicyclo[3.2.1]octan-8-yl]phenoxy]ethyl]piperazine-1-carbonyl]-2,6-diazaspiro[3.3]heptan-6-yl]-2-(2,6-dioxo-3-piperidyl)isoindoline-1,3-dione], the DC50 was determined as 16 nM and the Emax turned out to be 48%.

Consider `Nc1nnc(-c2ccccc2O)cc1N1CCC(C(=O)N2CC3(CCN(C(=O)COc4ccc5c(c4)C(=O)N(C4CCC(=O)NC4=O)C5=O)CC3)C2)(c2ccccc2)CC1` (stereo not drawn) [Example 162, 5-(2-(2-(1-(3-amino-6-(2-hydroxyphenyl)pyridazin-4-yl)-4-phenylpiperidine-4-carbonyl)-2,7-diazaspiro[3.5]nonan-7-yl)-2-oxoethoxy)-2-(2,6-dioxopiperidin-3-yl)isoindoline-1,3-dione], for which the DC50 turned out to be 299 nM and the maximal response (Emax) was determined as 57%.

Consider `Nc1nnc(-c2ccccc2O)cc1N1CC2CCC(C1)N2c1cccc(OCCN2CCN(C(=O)CCCNC(=O)COc3cccc4c3C(=O)N(C3CCC(=O)NC3=O)C4=O)CC2)c1` (racemic) [Example 17, rac-N-[4-[4-[2-[3-[3-[3-amino-6-(2-hydroxyphenyl)pyridazin-4-yl]-3,8-diazabicyclo[3.2.1]octan-8-yl]phenoxy]ethyl]piperazin-1-yl]-4-oxo-butyl]-2-[2-(2,6-dioxo-3-piperidyl)-1,3-dioxo-isoindolin-4-yl]oxy-acetamide], for which the DC50 was found to be 1440 nM and the Emax was determined as 64%.

For the molecule `Nc1nnc(-c2ccccc2O)cc1N1CC2CCC(C1)N2c1cccc(OCCN2CCN(CCC3CCN(c4ccc5c(c4)C(=O)N(C4CCC(=O)NC4=O)C5=O)CC3)CC2)c1` (racemic) [Example 34, rac-5-[4-[2-[4-[2-[3-[3-[3-amino-6-(2-hydroxyphenyl)pyridazin-4-yl]-3,8-diazabicyclo[3.2.1]octan-8-yl]phenoxy]ethyl]piperazin-1-yl]ethyl]-1-piperidyl]-2-(2,6-dioxo-3-piperidyl)isoindoline-1,3-dione], the DC50 is 26 nM and the maximum response (Emax) turned out to be 24%.
